{"source": "patent US20120110703A1", "about": "“PROTEIN HAVING NOVEL PRENYLT[…] AND GENE ENCODING THE SAME” (KIRIN HOLDINGS KABUSHIKI KAISHA, priority 2009, published 2012)", "key": {"H1PT1 prenyltransferase": {"target": "T1, H1PT1 prenyltransferase (Humulus lupulus, UniProt A0A0B4ZTQ2)", "T1 construct": "made in house; host or cells: Saccharomyces cerevisiae W303-1A-Δcoq2 (microsome fraction)", "T1 sequence (A0A0B4ZTQ2 47-408)": "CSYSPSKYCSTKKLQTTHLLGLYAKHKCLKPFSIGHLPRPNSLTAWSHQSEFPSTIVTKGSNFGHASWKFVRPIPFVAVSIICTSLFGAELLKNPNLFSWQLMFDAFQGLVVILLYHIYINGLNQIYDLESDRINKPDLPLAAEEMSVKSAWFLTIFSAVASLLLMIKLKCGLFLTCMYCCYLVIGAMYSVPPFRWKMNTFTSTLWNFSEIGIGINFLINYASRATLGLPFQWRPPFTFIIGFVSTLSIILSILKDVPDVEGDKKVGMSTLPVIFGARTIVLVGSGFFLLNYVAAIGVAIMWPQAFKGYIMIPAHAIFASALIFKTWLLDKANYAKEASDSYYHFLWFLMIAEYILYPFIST", "assay": "Prenyltransferase activity of recombinant H1PT1 (yeast microsome fraction), LC-MS analysis of products", "format": "biochemical", "settings": "for activity of transferring a prenyl group to substrate (substrate specificity): geranyl diphosphate as prenyl group donor, LCMS-IT-TOF, FIGS. 6 and 7", "method": "(§1) The enzyme of the present invention (340 μg to 730 μg), a substrate aromatic compound (1 mM) such as flavonoid, a prenyl group donor (1 mM), and MgCl2 (20 mM) are mixed in a 100 mM Tris-HCl buffer (pH 7.5) to bring the amount of the resultant to 200 μl, and the reaction is allowed to proceed at 30° C. overnight. After the completion of the reaction, the product is extracted with ethyl acetate, dried, and dissolved in MeOH. The resultant may be analyzed using a mass spectrometer or via chromatography.\nCloned plasmids (pDR196-H1PT1 and pDR196-H1PT2) comprising each full-length sequence of the two gene clusters (H1PT1 and H1PT2) were introduced into the yeast strain (W303-1A-Δcoq2) by the lithium acetate method. Culture was conducted in 180 ml of SD-Ura liquid medium up to the logarithmic growth phase to express recombinant proteins in yeast transformants, and microsome fractions were prepared therefrom using the method of Yazaki et al. (JBC, 2002, 277, 6240-6246). The total amount of the reaction solution was adjusted to 200 μl by mixing 340 μg to 730 μg of proteins from the microsome fractions, flavonoid (1 mM), a prenyl group donor (1 mM), 20 mM MgCl2, and 100 mM Tris-HCl buffer (pH 7.5), and the reaction was allowed to proceed at 30° C. overnight. After the completion of the reaction, the product was extracted with ethyl acetate, dried, and dissolved in methanol (MeOH). The resultant was analyzed using Shimadzu LCMS-2010A and LCMS-IT-TOF (Shimadzu Corporation), TSK-GEL ODS-80Ts 2.0 mm×25 cm (TOSOH), and a solvent system (0.3% formic acid:acetonitrile=3:7) at a flow rate of 0.2 ml/min−1. […] These compounds had not been prepared via the heterologous expression system with the use of a plant-derived gene in the past. 6-Geranylnaringenin (peak c in FIG. 4) was compared with a standard sample (provided by Associate professor Tomohisa Kuzuyama, the University of Tokyo), and the same retention time and identical fragments were observed (FIG. 5). Thus, novel prenyltransferase (i.e., H1PT1 full-length: 1,224 bp, ORF: […].; H1PT2 full-length: 1,233 bp, ORF: 411 a.a.) was obtained. The amino acid sequences of proteins encoded by H1PT1 and H1PT2 are shown in SEQ ID NOs: 1 and 2, respectively. The nucleotide sequences of H1PT1 and H1PT2 are shown in SEQ ID NOs: 3 and 4, respectively. […] Thus, H1PT1 was mainly subjected to analysis as described below; however, it was also possible to analyze H1PT2 in the same manner.\nThe Sophora flavescens gene (JP Patent Publication (Kokai) No. 2008-220304 A) and the soybean gene (Akashi et al., Plant Physiology 149: 683-693, 2009), which are already known, are known to encode enzymes that interact with limited substrates with very high specificity. The enzymatic properties of recombinant H1PT1 were analyzed using LCMS-IT-TOF. Geranyl diphosphate was used as a prenyl group donor for prenylation of various flavonoid-associated compounds (e.g., isoliquiritigenin, sakuranetin, taxifolin, or genistein)."}, "H1PT2 prenyltransferase": {"target": "T2, H1PT2 prenyltransferase (Humulus lupulus, UniProt E5RP65)", "T2 construct": "made in house; host or cells: Saccharomyces cerevisiae W303-1A-Δcoq2 (microsome fraction)", "T2 sequence (E5RP65 92-411)": "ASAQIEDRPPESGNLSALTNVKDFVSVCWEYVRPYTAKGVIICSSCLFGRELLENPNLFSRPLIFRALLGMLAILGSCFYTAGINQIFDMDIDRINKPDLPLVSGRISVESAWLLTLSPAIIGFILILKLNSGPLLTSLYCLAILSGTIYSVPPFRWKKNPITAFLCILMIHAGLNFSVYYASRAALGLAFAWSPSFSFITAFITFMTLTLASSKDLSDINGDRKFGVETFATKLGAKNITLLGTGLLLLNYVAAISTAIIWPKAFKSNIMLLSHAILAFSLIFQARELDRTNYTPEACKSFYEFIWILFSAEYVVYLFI", "assay": "Prenyltransferase activity of recombinant H1PT2 (yeast microsome fraction), LC-MS analysis of products", "format": "biochemical", "settings": "flavonoid 1 mM, geranyl diphosphate 1 mM as prenyl group donor, 20 mM MgCl2, pH 7.5, 30° C. overnight; FIG. 4", "method": "as §1\nCloned plasmids (pDR196-H1PT1 and pDR196-H1PT2) comprising each full-length sequence of the two gene clusters (H1PT1 and H1PT2) were introduced into the yeast strain (W303-1A-Δcoq2) by the lithium acetate method. Culture was conducted in 180 ml of SD-Ura liquid medium up to the logarithmic growth phase to express recombinant proteins in yeast transformants, and microsome fractions were prepared therefrom using the method of Yazaki et al. (JBC, 2002, 277, 6240-6246). […] The resultant was analyzed using Shimadzu LCMS-2010A and LCMS-IT-TOF (Shimadzu Corporation), TSK-GEL ODS-80Ts 2.0 mm×25 cm (TOSOH), and a solvent system (0.3% formic acid:acetonitrile=3:7) at a flow rate of 0.2 ml/min−1. […]"}}}
{"molecule": "O=c1c(-c2ccc(O)cc2)coc2cc(O)cc(O)c12", "note": "[genistein]", "values": [{"measurement": "activity of transferring a prenyl group to substrate (substrate specificity)", "setting": "H1PT1 prenyltransferase", "value": "activity of transferring a prenyl group to all substrates was observed"}]}
{"molecule": "O=C(/C=C/c1ccc(O)cc1)c1ccc(O)cc1O", "note": "[isoliquiritigenin]", "values": [{"measurement": "activity of transferring a prenyl group to substrate (substrate specificity)", "setting": "H1PT1 prenyltransferase", "value": "activity of transferring a prenyl group to all substrates was observed"}]}
{"molecule": "O=C1C[C@@H](c2ccc(O)cc2)Oc2cc(O)cc(O)c21", "note": "[naringenin]", "values": [{"measurement": "prenylated products from substrate", "setting": "H1PT1 prenyltransferase; flavonoid 1 mM, geranyl diphosphate 1 mM as prenyl group donor, 20 mM MgCl2, pH 7.5, 30° C. overnight, FIG. 4", "value": "a compound into which prenyl had been introduced at position 6 and a compound into which prenyl was deduced to have been introduced at position 8 or 3′ were detected"}, {"measurement": "prenylated products from substrate", "setting": "H1PT2 prenyltransferase", "value": "a compound into which prenyl had been introduced at position 6 and a compound into which prenyl was deduced to have been introduced at position 8 or 3′ were detected"}]}
{"molecule": "COc1cc(O)c2c(c1)O[C@H](c1ccc(O)cc1)CC2=O", "note": "[sakuranetin]", "values": [{"measurement": "activity of transferring a prenyl group to substrate (substrate specificity)", "setting": "H1PT1 prenyltransferase", "value": "activity of transferring a prenyl group to all substrates was observed"}]}
{"molecule": "O=C1c2c(O)cc(O)cc2O[C@H](c2ccc(O)c(O)c2)[C@H]1O", "note": "[taxifolin]", "values": [{"measurement": "activity of transferring a prenyl group to substrate (substrate specificity)", "setting": "H1PT1 prenyltransferase", "value": "activity of transferring a prenyl group to all substrates was observed"}]}
